Measured values: ChEMBL document CHEMBL1201862, “PubChem BioAssay data set” (2004)
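1) Cells in 96-well plates. 2) Compound, 48 h, 5 concentrations. 3) Linear interpolation between surrounding doses. 4) Unreached endpoint = highest concentration. GI50 = concentration required for 50% inhibition of growth.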 Activity calls are given as the source filed them. Rule as the data show it: active = GI50 up to about 1.1 µM and inactive = higher.

Tests used:
Experiment in all cases: NCI anticancer screen, dose series, 48 h
A549 = test system: A549
CAKI-1 = test system: CAKI-1
DU-145 = test system: DU-145
HCC 2998 = test system: HCC 2998
HL-60 = test system: HL-60
HOP-62 = test system: HOP-62
M14 = test system: M14
MCF7 = test system: MCF7
MDA-MB-435 = test system: MDA-MB-435
NCI-H23 = test system: NCI-H23
RPMI-8226 = test system: RPMI-8226
SF-268 = test system: SF-268
SF-539 = test system: SF-539
SK-MEL-28 = test system: SK-MEL-28
SNB-19 = test system: SNB-19
SW-620 = test system: SW-620
UACC-62 = test system: UACC-62
SK-MEL-5 = test system: SK-MEL-5
A498 = test system: A498
RXF 393 = test system: RXF 393

Measured: GI50

COc1ccc(NCC(=O)Nn2c(C)nc3ccc(S(=O)(=O)Nc4ccc(OC)cc4)cc3c2=O)cc1
inactive: A549 > 100 µM | CAKI-1 > 100 µM | DU-145 > 100 µM | HCC 2998 > 100 µM | HL-60 > 100 µM | HOP-62 > 100 µM | M14 > 100 µM | MCF7 > 100 µM | MDA-MB-435 > 100 µM | NCI-H23 > 100 µM | RPMI-8226 > 100 µM | SF-268 > 100 µM | SF-539 > 100 µM | SK-MEL-28 > 100 µM | SNB-19 > 100 µM | SW-620 > 100 µM | UACC-62 > 100 µM

CSC1=C(SC)SC(=C2SC3=C(SC(=C4SCCS4)S3)S2)S1
inactive: A549 > 100 µM | CAKI-1 > 100 µM | DU-145 > 100 µM | HCC 2998 > 100 µM | HL-60 > 100 µM | HOP-62 > 100 µM | M14 > 100 µM | MCF7 > 100 µM | MDA-MB-435 > 100 µM | NCI-H23 > 100 µM | RPMI-8226 > 100 µM | SF-268 > 100 µM | SF-539 > 100 µM | SK-MEL-28 > 100 µM | SK-MEL-5 > 100 µM | SNB-19 > 100 µM | SW-620 > 100 µM | UACC-62 > 100 µM

Cc1cc(-c2no[n+]([O-])c2-c2cc(C)sc2S(C)(=O)=O)c(S(C)(=O)=O)s1
inactive: A498 > 100 µM | CAKI-1 > 100 µM | HCC 2998 > 100 µM | HOP-62 > 100 µM | M14 > 100 µM | MDA-MB-435 > 100 µM | NCI-H23 > 100 µM | RPMI-8226 > 100 µM | SF-268 > 100 µM | SF-539 > 100 µM | SK-MEL-28 > 100 µM | SK-MEL-5 > 100 µM | SNB-19 20.2 µM | SW-620 > 100 µM

O=S(=O)(O)c1ccc(NN(c2c(O)ccc3ccccc23)S(=O)(=O)O)cc1
inactive: A498 > 100 µM | A549 > 100 µM | CAKI-1 > 100 µM | DU-145 > 100 µM | HCC 2998 > 100 µM | HL-60 > 100 µM | HOP-62 > 100 µM | M14 > 100 µM | MCF7 > 100 µM | MDA-MB-435 > 100 µM | NCI-H23 > 100 µM | RPMI-8226 > 100 µM | SF-268 > 100 µM | SF-539 > 100 µM | SK-MEL-28 > 100 µM | SK-MEL-5 > 100 µM | SNB-19 > 100 µM | SW-620 > 100 µM | UACC-62 > 100 µM

Cc1ccc(S(=O)(=O)Nn2c(-c3ccccc3)c(C#N)c(-c3ccc([N+](=O)[O-])cc3)c(C#N)c2=O)cc1
inactive: A498 > 100 µM | A549 > 100 µM | CAKI-1 > 100 µM | HCC 2998 > 100 µM | HL-60 39.4 µM | HOP-62 > 100 µM | M14 > 100 µM | MCF7 61.2 µM | MDA-MB-435 > 100 µM | RPMI-8226 25.8 µM | RXF 393 > 100 µM | SF-268 > 100 µM | SF-539 > 100 µM | SK-MEL-28 > 100 µM | SK-MEL-5 97.1 µM | SNB-19 40.8 µM | SW-620 > 100 µM | UACC-62 > 100 µM

CCOc1ccc2c(c1)/C(=C(\C(Cl)=C(Cl)Cl)[N+](=O)[O-])N2
inactive: A498 > 100 µM | A549 > 100 µM | CAKI-1 > 100 µM | DU-145 > 100 µM | HCC 2998 > 100 µM | HOP-62 > 100 µM | M14 > 100 µM | MCF7 > 100 µM | MDA-MB-435 > 100 µM | NCI-H23 > 100 µM | RPMI-8226 69.3 µM | SF-268 66.2 µM | SF-539 > 100 µM | SK-MEL-28 > 100 µM | SNB-19 > 100 µM | SW-620 > 100 µM | UACC-62 > 100 µM

CC(N)(/C=C/c1ccccc1)C(=O)O (stereo unspecified)
inactive: A498 > 100 µM | A549 > 100 µM | CAKI-1 > 100 µM | HL-60 > 100 µM | HOP-62 > 100 µM | M14 > 100 µM | MCF7 > 100 µM | MDA-MB-435 > 100 µM | NCI-H23 > 100 µM | RPMI-8226 > 100 µM | SF-268 > 100 µM | SF-539 > 100 µM | SK-MEL-28 > 100 µM | SK-MEL-5 > 100 µM | SNB-19 > 100 µM | SW-620 > 100 µM | UACC-62 > 100 µM

CCOc1cc(/C=C2/C(C)=NN(c3cccc(Cl)c3)/C2=N/c2nc3ccccc3s2)ccc1O
inactive: A498 24.2 µM | DU-145 46.1 µM | HCC 2998 14.3 µM | HL-60 3.3 µM | HOP-62 23.2 µM | M14 24.9 µM | MCF7 28.5 µM | NCI-H23 19.4 µM | RPMI-8226 38.3 µM | RXF 393 38.6 µM | SF-268 28.2 µM | SF-539 24.5 µM | SK-MEL-28 34.7 µM | SK-MEL-5 17.8 µM | SW-620 34.6 µM

O=Cc1c2n(c3ccccc13)N[C@@](Cc1ccc(O)cc1)(C(=O)O)C2
inactive: A498 > 100 µM | A549 > 100 µM | CAKI-1 > 100 µM | DU-145 > 100 µM | HL-60 47.1 µM | HOP-62 46.7 µM | M14 65.6 µM | MCF7 55.5 µM | MDA-MB-435 > 100 µM | NCI-H23 > 100 µM | RPMI-8226 > 100 µM | SF-268 36 µM | SF-539 > 100 µM | SK-MEL-28 > 100 µM | SK-MEL-5 > 100 µM | SNB-19 > 100 µM | SW-620 56.8 µM | UACC-62 > 100 µM

Cc1ccc(S(=O)(=O)NC(=O)N[C@@H](Cc2c[nH]cn2)C(=O)O)cc1
inactive: A549 > 100 µM | DU-145 > 100 µM | HL-60 > 100 µM | HOP-62 > 100 µM | M14 > 100 µM | MCF7 > 100 µM | NCI-H23 > 100 µM | RPMI-8226 37.3 µM | RXF 393 > 100 µM | SF-268 > 100 µM | SF-539 > 100 µM | SK-MEL-28 > 100 µM | SK-MEL-5 > 100 µM | SNB-19 > 100 µM | SW-620 > 100 µM | UACC-62 > 100 µM

CC(=O)N1C(C(=O)NN2CCOCC2)CSC1c1ccccc1 (stereo unspecified)
inactive: A498 > 100 µM | A549 > 100 µM | CAKI-1 > 100 µM | DU-145 > 100 µM | HCC 2998 > 100 µM | HOP-62 > 100 µM | M14 > 100 µM | MCF7 > 100 µM | MDA-MB-435 > 100 µM | NCI-H23 > 100 µM | RPMI-8226 > 100 µM | SF-268 > 100 µM | SF-539 > 100 µM | SK-MEL-5 > 100 µM | SNB-19 > 100 µM | SW-620 > 100 µM | UACC-62 > 100 µM
